Experimental data: article PMC5877539, “Biochemical and MALDI-TOF Mass Spectrometric Characterization of a Novel Native and Recombinant Cystine Knot Miniprotein from Solanum tuberosum subsp. andigenum cv. Churqueña” (International Journal of Molecular Sciences, 2018)
Non-standard residues stand in square brackets, D forms with d. No end group written: not given here. pGlu = O=C1CC[C@@H](C(=O)O)N1

Experiments:
immobilized CPA [1] = test: C-terminal cleavage by immobilized CPA; parameters: species or system bovine; conditions: affinity chromatography eluate, MALDI-TOF
Description: (§1) A 50 mL aliquot of the clarified crude extract (with a protein concentration of (200 μg·mL^−1) was loaded onto a 2.0 mL bovine CPA-glyoxyl-agarose column prepared in house. The affinity resin was prepared in house as described. Before the addition of the crude extract, the affinity resin was previously equilibrated with 10 column volumes (cv) 0.1 M Tris-HCl buffer (pH 7.2) containing 0.2 M NaCl. Then, the column was washed with 5 cv of equilibration buffer. The retained proteins were eluted with two different buffers: (1) HCl solution with pH = 5.0 (2 cv) and (2) […] solution with pH = 3.0 (2 cv). The eluted fractions were adjusted immediately to pH 7.0 by adding NaOH. All the fractions that presented CPA inhibitory activity were pooled and stored at −80 °C until analysis.
(§2) For MALDI-TOF mass spectrometric analysis, samples from the different purification steps, as well as from the clarified crude extract were mixed with an equal volume of α-cyano-4-hydroxycinnamic acid (hcca) matrix solution. Previously, the samples were desalted by dialysis in 0.022 μm filters. The matrix-sample mixture was spotted onto MT 384 target plate polished steel T F from Bruker Daltonics, and the spots were evaporated to dryness at room temperature. […] The resultant tryptic peptides were dissolved in 10 μL of 0.1% CF3CO2H (v/v) an analyzed by MALDI-TOF in the presence of hcca matrix. […]

bovine CPA [2] = test: Affinity chromatography on CPA-glyoxyl-agarose (binding to immobilized CPA), MALDI-TOF read-out; conditions: heat-treated extract (100 °C, 60 min); 0.1 M Tris-HCl pH 7.2, 0.2 M NaCl
Description: as §1, §2

immobilized CPA [3] = conditions: after binding of the inhibitor to immobilized CPA; cited from earlier work
Source text: For further characterization, the initial heat-treated crude extract, the flow-through (fraction containing the non-retained peptides and proteins), and the elution from the affinity chromatography containing the final purified protein were subjected to MALDI-TOF mass spectrometry. A detailed analysis of the peaks present in the mass spectra for the initial heat-treat ...

[4] = ref 34 (Wang and co-workers, 2006); cited from earlier work
Source text: (§3) A number of CKMPs function as potent protease peptide inhibitors (PPIs). Among them, the potato carboxypeptidase inhibitor (PCI) was the first CKMPs to be discovered. […] The first crystal structure of this 39 amino acid plant protease inhibitor was reported in 1980 by Rees and Liscomb. After almost 40 years of intense research in the field of proteases, only a small number of metallocarboxypept ...

[5] = tested on: pancreatic carboxypeptidases A and B (CPA and CPB, respectively); conditions: in vitro, by pancreatic carboxypeptidases A and B; cited from earlier work
Source text: as §3

[6] = tested on: metallocarboxypeptidases (MCPs); conditions: cited from earlier work
Source text: as §3

adenocarcinoma cell = conditions: in vitro, acting as epidermal growth factor (EGF) antagonist; cited from earlier work
Source text: as §3

[7] = target: porcine carboxypeptidases B (pCPB); test: Inhibition kinetic constant (Ki), pCPB, pre-steady-state tight-binding (Morrison) assay; assay type: biochemical; conditions: against pCPB
Description: (§4) The inhibitory properties of the purified rchuPCI against bCPA and pCPB were determined and compared with a recombinant version of the canonical PCI. The Ki values were evaluated following a pre-steady-state based protocol, according to the Morrison model for tight-binding inhibitors. […] When compared to the canonical PCI, the Ki values obtained for rchuPCI against bCPA and pCPB were about 2-fold higher than the Ki values obtained for recombinant PCI (rPCI).
(§5) The method for tight binding inhibitors was used for the Ki determination. Inhibitory assays were performed at 25 °C under equilibrium conditions ([E0]/Ki ≤ 10) with a fixed concentration of bCPA or pCPB and substrate (0.1 mM N-(4-methoxyphenylazoformyl)-Phe-OH or 0.1 mM N-(4-methoxyphenylazoformyl)-Arg-OH, respectively) in Tris-HCl buffer (pH 7.5) containing 0.2 M NaCl. Samples were pre-incubated for 15 min at RT before the addition of substrate. Then, the decrease in absorbance was measured at 340 nm in a Victor3 (Perkin Elmer, Boston, MA, USA) plate reader. Ki values were calculated by direct fitting of the fractional activities (vi/v0) to the Morrison equation and assuming a competitive inhibition modality (Equations (3) and (4)). (3) vi/v0=1−([E]T+[I]T+Kiapp)−([E]T+[I]T+Kiapp)^2−4[E]T[I]T/2[E]T (4) Ki=Kiapp/([S0/KM])+1 […]

[8] = target: bovine carboxypeptidases A (bCPA); test: Inhibition kinetic constant (Ki), bCPA, pre-steady-state tight-binding (Morrison) assay; assay type: biochemical; conditions: against bCPA
Description: as §4, §5

bovine CPA [9] = test: CPA inhibitory activity after heat treatment (thermal stability); assay type: physicochemical; conditions: crude extract, 100 °C for 60 min; Bradford and CPA inhibition
Description: The bCPA inhibitory activity of the crude extract and the heat-treated samples was determined similarly as described above for the determination of the IC50 values. However, in this case a unique concentration of the sample was tested. bCPA inhibitory activity (%) was calculated by using the following equation:(2) Y=(ΔAbs340nm/Δt(min))potato extract/(ΔAbs340nm/Δt(min))control×100
(§6) Aliquots with 1.0 mL of the clarified crude extract (see Section 3.2) where incubated at 60, 70, 85 or 100 °C for 60 min. After incubation the samples were centrifuged at 14,500× g for 90 min at 4 °C to eliminate all thermally denatured proteins. Afterwards, the total protein content and the inhibitory activity of the non-treated crude extract and heat-treated samples were determined.

[10] = MALDI-TOF MS of heat-treated samples (thermal stability); assay type: physicochemical; conditions: crude extract heat-treated 60 min; MALDI-TOF linear positive mode
Description: as §6
For MALDI-TOF mass spectrometric analysis, samples from the different purification steps, as well as from the clarified crude extract were mixed with an equal volume of α-cyano-4-hydroxycinnamic acid (hcca) matrix solution. Previously, the samples were desalted by dialysis in 0.022 μm filters. The matrix-sample mixture was spotted onto MT 384 target plate polished steel T F from Bruker Daltonics, and the spots were evaporated to dryness at room temperature. Mass spectra were acquired on a Bruker Daltonics Ultraflextreme MALDI-TOF mass spectrometer (Bruker Daltonics, Billerica, MA, USA) operating in a linear positive mode. PMF analysis was performed for the identification of nchuPCI. In brief, an in situ tryptic digestion of the tris-tricine-SDS-PAGE electrophoresis bands as performed by following a well described protocol. The resultant tryptic peptides were dissolved in 10 μL of 0.1% CF3CO2H (v/v) an analyzed by MALDI-TOF in the presence of hcca matrix. […]

[11] = cited from earlier work
Source text: To date, a large number of CKMPs have been identified and isolated from natural sources (i.e., from arthropods, vertebrates, mollusks, fungi, plants, and so on). These molecules belong to more than 34 protein families and are involved in diverse biological functions. In animals, CKMPs are secreted peptides that function as extracellular signaling molecules involved in the regulation of important cellular functions such as cell growth or cell development. In plants, CKMPs are often involved in defense against external pathogens. Typically, the latter group functions as prote ...

calcium channel = conditions: cited from earlier work
[12] = target: T1, Carboxypeptidase B from porcine pancreas (porcine, UniProt P09955 111-416); test: enzyme inhibition kinetics (Morrison equation for tight-binding inhibitors); 25 °C, equilibrium conditions ([E0]/Ki <= 10), fixed bCPA or pCPB, 0.1 mM N-(4-methoxyphenylazoformyl)-Phe-OH (bCPA) or -Arg-OH (pCPB), Tris-HCl pH 7.5, 0.2 M NaCl; pre-incubated 15 min at RT; absorbance at 340 nm; competitive inhibition assumed; conditions: both partners purified
T1 construct: carboxypeptidase B from porcine pancreas; also called pCPB; porcine CPB; source: bought: Sigma-Aldrich (from porcine pancreas)
T1 sequence (looked up): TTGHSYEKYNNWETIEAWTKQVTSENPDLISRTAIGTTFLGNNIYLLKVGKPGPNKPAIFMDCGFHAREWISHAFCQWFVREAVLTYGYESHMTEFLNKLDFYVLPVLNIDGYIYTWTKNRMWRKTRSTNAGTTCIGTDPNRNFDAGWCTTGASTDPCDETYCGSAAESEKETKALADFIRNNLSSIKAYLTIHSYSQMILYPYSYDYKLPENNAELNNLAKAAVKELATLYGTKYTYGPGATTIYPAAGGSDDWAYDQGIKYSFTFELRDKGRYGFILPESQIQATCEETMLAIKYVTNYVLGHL

[13] = target: T2, Carboxypeptidase A from bovine pancreas (bovine, UniProt P00730 111-419); test: as above; conditions: both partners purified
T2 construct: carboxypeptidase A from bovine pancreas; Free in solution for the Ki determinations; also called bCPA; bovine CPA; source: bought: Sigma-Aldrich (from bovine pancreas)
T2 sequence (looked up): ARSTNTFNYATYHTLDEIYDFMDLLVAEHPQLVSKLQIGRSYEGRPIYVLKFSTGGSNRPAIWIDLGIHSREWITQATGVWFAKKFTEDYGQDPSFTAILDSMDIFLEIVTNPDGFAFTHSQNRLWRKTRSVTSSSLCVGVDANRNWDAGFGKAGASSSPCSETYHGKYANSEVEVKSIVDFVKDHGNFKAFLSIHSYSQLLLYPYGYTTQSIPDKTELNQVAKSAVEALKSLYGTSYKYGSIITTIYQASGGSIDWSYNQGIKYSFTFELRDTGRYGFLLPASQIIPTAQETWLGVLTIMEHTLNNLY

[14] = compared to recombinant PCI (rPCI)

-RDPDPICNKPCKTHDDCSGAWFCQACWNSARTCGPYVG (disulfide) [IIa, chuPCI lacking the N-terminal amino acid]
C-terminal cleavage by immobilized CPA (mass shift) (immobilized CPA [1]): loss of 57 Da
Retention by immobilized CPA (MALDI-TOF of flow-through vs initial extract) (bovine CPA [2]): clear fading of the molecular ion intensities

PCI: potato carboxypeptidase inhibitor, 39 amino acid plant protease inhibitor from Solanum tuberosum (QQHADPICNKPCKTHDDCSGAWFCQACWNSARTCGPYVG)
C-terminal cleavage by immobilized CPA (immobilized CPA [3]): a C-terminal glycine residue is usually cleaved by the immobilized CPA
Antithrombotic action [4]: can act as an antithrombotic drug
Blocking of C-terminal cleavage (and consequent inactivation) of human EGF [5]: blocks the C-terminal cleavage
Inhibition of metallocarboxypeptidases [6]: inhibits different enzymes within the family of metallocarboxypeptidases
Inhibition of adenocarcinoma cell growth (adenocarcinoma cell): inhibit in vitro adenocarcinoma cell growth

QRDPDPICNKPCKTHDDCSGAWFCQACWNSARTCGPYVG (disulfide (positions not given here)) [rchuPCI, recombinant product of mature chuPCI (39 amino acids) expressed in E. coli BL21 (DE3)]
All Ki values determined (range in words) [7]: nanomolar range
Ki values obtained for rchuPCI compared with rPCI (fold higher) [7, 14]: about 2 fold
All Ki values determined (range in words) [8]: nanomolar range
Ki values obtained for rchuPCI compared with rPCI (fold higher) [8, 14]: about 2 fold

[pGlu]RDPDPICNKPCKTHDDCSGAWFCQACWNSARTCGPYVG (disulfide (positions not given here)) [IIIa, full-length chuPCI post-translationally modified with an N-terminal pyroglutamic acid]
C-terminal cleavage by immobilized CPA (mass shift) (immobilized CPA [1]): loss of 57 Da
Retention by immobilized CPA (MALDI-TOF of flow-through vs initial extract) (bovine CPA [2]): clear fading of the molecular ion intensities

[pGlu]RDPDPICNKPCKTHDDCSGAWFCQACWNSARTCGPYVG (disulfide (positions not given here)) [native chuPCI, Churqueña]
Temperature stability of CPA inhibitory activity (bovine CPA [9]): high temperature stability, even after thermal treatment at 100 °C for 60 min
Heat resistance of the 4309 Da peak/miniprotein [10]: heat-resistant molecule

kalata B1: CKMP isolated from plants (GLPVCGETCVGGTCNTPGCTCSWPVCTRN; ends and bridges not checked; also: cystine-knot disulfides, pairing not given here; UniProt P56254 89-117, looked up)
Antibacterial and/or antifungal activities [11]: antibacterial and/or antifungal activities

ω-conotoxin MVIIa
Calcium channel block (calcium channel): calcium channel blocker

QQHADPICNKPCKTHDDCSGAWFCQACWNSARTCGPYVG (natural protein, Solanum tuberosum subsp. tuberosum, UniProt P01075 1-39, looked up, also called canonical PCI) [recombinant canonical potato carboxypeptidase inhibitor (PCI)]
Ki [12]: 10.7 ± 1.17 nM
Ki [13]: 4.3 ± 0.46 nM

B1: recombinant chuPCI (cystine-knot metallocarboxypeptidase inhibitor from Solanum tuberosum subsp. andigenum cv. Churqueña) (natural protein)
chain: QRDPDPICNKPCKTHDDCSGAWFCQACWNSARTCGPYVG
modifications: also: N-terminal Gln partly cyclised to pyroglutamate
notes: mature chuPCI (39 amino acids) of the chuPCI precursor, S. tuberosum subsp. andigenum cv; Churqueña; Cloned in pIN-III-OmpA3 with the OmpA3 signal peptide at the N-terminus for secretion; The mass of the purified protein (4326.3 Da) fits the 39 residues without the signal peptide; Three disulfide bonds (Cys8-Cys24, Cys12-Cys27, Cys18-Cys34); also called rchuPCI; recombinant churqueña PCI; source: …
Ki [12]: 19.8 ± 1.82 nM
Ki [13]: 10.8 ± 1.55 nM
